# Results: patent US20090281040A1, “Methods For Treating Endoplasmic Reticulum (ER) Stress Disorders” (priority 2008, published 2009)
# Where a SMILES comes first, the peptide text is derived from it. The star is where a group is joined. Cbz = O=C(OCc1ccccc1)*
# Assays:
# WFS1-ATF6 complex = assay: WFS1-ATF6 co-immunoprecipitation in INS-1 832/13 cells; assay type: cell-based, rat
# Procedure: Both WFS1 and ATF6 are transmembrane proteins localized to the ER. The association of WFS1 with ATF6 in INS-1 832/13 cells was examined. An anti-WFS1 antibody was used to immunoprecipitate (IP) WFS1 from INS-1 832/13 cells untreated (UT) or treated with the ER stress inducer DTT (1 mM) for 0.5 hr, 1.5 hr, or 3 hr. Immunoprecipitates were then subject to immunoblot (IB) analysis using anti-ATF6, anti-WFS1, and anti-actin antibodies. […] To confirm that the interaction between WFS1 and ATF6 is recovered post-stress, an anti-WFS1 antibody was used to immunoprecipiate (IP) WFS1 from INS-1 832/13 cells untreated (UT) or treated with the ER stress inducer DTT (1 mM) for 2 hr. The cells were then chased in normal media for 0 hr and 3 hr. Immunoprecipitates were subject to immunoblot (IB) analysis using anti-ATF6, anti-WFS1, and anti-actin antibodies. The relative amount of ATF6 protein was quantified using ImageJ software.
# ATF6 = ATF6 protein level immunoblot in COS7 cells expressing ATF6-HA and WFS1-FLAG; assay type: cell-based; conditions: MG132 15 μM, 3 hr
# Procedure: To investigate whether the decrease in ATF6 protein level is proteosome-dependent, COS7 cells expressing ATF6-HA or ATF6-HA and WFS1-FLAG were either untreated (UT) or treated with the proteosome inhibitor MG132 (15 μM) for 3 hr. Lysates were immunoblotted with anti-HA, anti-FLAG, and anti-actin antibodies.
# AATF mRNA [1] = assay: AATF mRNA expression by real-time PCR in cells treated with ER stress inducers; assay type: cell-based, rat; mouse; conditions: for AATF mRNA expression: INS-1 832/13, neuro2A cells and mouse embryonic fibroblasts, 16 hr, TM 5 μg/ml, Tg 1 μM, MG132 2 μM, STR 0.05 and 0.01 μM
# Procedure: Cell culture and transfection of small interfering RNA. Rat insulinoma cells, INS-1 832/13, were a gift from Dr. Christopher Newgard (Duke University Medical Center). These cells were cultured in RPMI 1640 supplemented with 10% FBS. Mouse embryonic fibroblasts, COS7 cells, and Neuro2a cells were maintained in DMEM with 10% fetal bovine serum. Human neuroblastoma cells, SH-SY5Y cells, were cultured in DMEM/F12 with 10% fetal bovine serum.
# (§1) Real-time polymerase chain reaction. Total RNA was isolated from cells using RNeasy Mini Kit (Qiagen) and reverse transcribed using 1 μg of total RNA from cells with Oligo-dT primer. For the thermal cycle reaction, the iQ5 system (BioRad, Hercules, Calif.) was used at 95° C. for 10 min, 40 cycles at 95° C. for 10 sec, and at 55° C. for 30 sec.
# The relative amount for each transcript was calculated by a standard curve of cycle thresholds for serial dilutions of cDNA samples and normalized to the amount of actin. The polymerase chain reaction (PCR) was done in triplicate for each sample, after which all experiments were repeated twice. The following sets of primers and Power SYBR Green PCR Master Mix (Applied Biosystems, Foster City, Calif.) were used for real-time PCR: […]
# AATF mRNA [2] = assay: AATF mRNA by real-time PCR in wild-type, Ire1α−/− and Perk−/− mouse embryonic fibroblasts; assay type: cell-based; conditions: for attenuation of the induction of AATF: Ire1α−/− cells versus wild-type; for induction of AATF: Perk−/− mouse embryonic fibroblasts versus wild-type
# Procedure: as §1
# (§2) The relative amount for each transcript was calculated by a standard curve of cycle thresholds for serial dilutions of cDNA samples and normalized to the amount of actin. The polymerase chain reaction (PCR) was done in triplicate for each sample, after which all experiments were repeated twice. The following sets of primers and Power SYBR Green PCR Master Mix (Applied Biosystems, Foster City, Calif.) were used for real-time PCR:
# The pathway by which AATF expression is regulated was investigated. IRE 1 and PERK are ER-resident protein kinases and regulators of the UPR. The expression levels of AATF were measured by real-time PCR in Ire1α^−/− and Perk^−/− mouse embryonic fibroblasts under ER stress conditions. […] To confirm this, Perk^−/− mouse embryonic fibroblasts were transfected with PERK expression plasmid, then AATF gene expression was measured. Chop expression was also measured as a control. PERK expression could restore both AATF and Chop expression (FIG. 2D).
# Chop mRNA = Chop mRNA by real-time PCR in wild-type and Perk−/− mouse embryonic fibroblasts; assay type: cell-based; set-up: dose or concentration left out as unconfirmed; conditions: Salubrinal, 16 hr
# Procedure: as §1, §2
# It is established that PERK-mediated eIF2α phosphorylation has role in the up-regulation of its target genes (see, e.g., Harding, H. P., et al., Mol Cell 6, 1099-1108 (2000); Harding et al., Nature 397, 271-274 (1999)). Whether eIF2α phosphorylation could increase AATF expression was determined. […]
# eIF2α phosphorylation = eIF2α phosphorylation immunoblot in mouse embryonic fibroblasts; assay type: cell-based; set-up: dose or concentration left out as unconfirmed; conditions: 16 hr
# Procedure: (§3) Immunoblotting. Cells were lysed for 15 min on ice at 4° C. in ice-cold M-PER buffer (PIERCE, Rockford, Ill.) containing protease inhibitors. The lysates were then cleared by centrifuging the cells at 13,000 g. Lysates were normalized for total protein, separated by SDS-PAGE (15% gel or 5%-20% gradient gel), and transferred onto a polyvinylidene difluoride membrane. To detect human AATF protein, anti-AATF antibody from Bethyl (Montgomery, Tex.) was used. To detect rat AATF protein, a rabbit anti-AATF antibody generated using a peptide, RPREADPEADPEEATR, was used. […]
# It is established that PERK-mediated eIF2α phosphorylation has role in the up-regulation of its target genes (see, e.g., Harding, H. P., et al., Mol Cell 6, 1099-1108 (2000); Harding et al., Nature 397, 271-274 (1999)). Whether eIF2α phosphorylation could increase AATF expression was determined. Wild-type and Perk^−/− mouse fibroblasts were treated with salubrinal, a compound that increases eIF2α phosphorylation (see Boyce, M., et al., Science (New York, N.Y. 307, 935-939 (2005)), then AATF expression was measured, with Chop expression as a control. AATF expression, as well as Chop expression, was increased by salubrinal treatment in both wild-type and Perk^−/− mouse embryonic fibroblasts (FIG. 2C, upper panel). Immunoblot confirmed that eIF2α phosphorylation levels were increased by salubrinal (FIG. 2C, lower panel).
# Akt1 mRNA = Akt1 mRNA expression by real-time PCR; assay type: cell-based, rat; mouse; conditions: Tg 1 μM
# Procedure: as §1, §2
# Whether Akt1 expression is increased by ER stress was examined. The expression levels of Akt1 mRNA were measured in the presence of ER stress in INS-1 832/13, neuro2A, and mouse embryonic fibroblasts.
# AATF = AATF immunoblot of cytoplasmic and nuclear extracts from INS-1 832/13 cells; assay type: cell-based, rat; conditions: Tg 1 μM
# Procedure: Immunoblotting. Cells were lysed for 15 min on ice at 4° C. in ice-cold M-PER buffer (PIERCE, Rockford, Ill.) containing protease inhibitors. The lysates were then cleared by centrifuging the cells at 13,000 g. Lysates were normalized for total protein, separated by SDS-PAGE (15% gel or 5%-20% gradient gel), and transferred onto a polyvinylidene difluoride membrane. To detect human AATF protein, anti-AATF antibody from Bethyl (Montgomery, Tex.) was used. To detect rat AATF protein, a rabbit anti-AATF antibody generated using a peptide, RPREADPEADPEEATR, was used. Anti-actin and anti-myc (9E10) antibodies were purchased from Sigma (St. Louis, Mo.); anti-eIF2α was purchased from Santa Cruz Biotechnology (Santa Cruz, Calif.); anti-phospho-eIF2α, anti-Akt, anti-Akt1, anti-phospho-Akt, anti-Creb, anti-tubulin, and anti-caspase-3 antibodies were purchased from Cell Signaling (Danvers, Mass.).
# Akt = assay: Akt, Akt1 and phosphorylated Akt immunoblot in INS-1 832/13 cells; assay type: cell-based, rat; conditions: INS1 832/13 cells, Tg 1 μM
# Procedure: as §3
# It has been proposed that phosphorylation of Akt is important in protecting cells from apoptosis (Srinivasan, S., et al., Diabetes 54, 968-975 (2005). As shown in FIG. 4C (right panel), phosphorylation level of Akt was increased up to 8 hr after treatment, but decreased at 24 hr. To study the relationship between AATF suppression and Akt phosphorylation, AATF expression was suppressed using siRNA directed against AATF in INS-1 832/13 cells and the cells were treated with thapsigargin for 0, 3, and 8 hr, then Akt expression and Akt phosphorylation levels were measured by immunoblot. Both Akt expression and Akt phosphorylation levels were decreased by AATF siRNA (FIG. 4D). […] INS-1 832/13 cells were infected with the virus and Akt1 expression levels were measured.
compound,measurement,setting,value
O[C@@H](CS)[C@@H](O)CS [DTT],interaction of ATF6 and WFS1 post-stress,"WFS1-ATF6 complex; DTT 1 mM 2 hr, then 3 hour chase in normal media",began to recover
same,dissociation of ATF6 from WFS1,"WFS1-ATF6 complex; DTT 1 mM, 3 hours post-treatment, time-dependent",almost complete dissociation
CC(C)C[C@@H](C=O)NC(=O)[C@H](CC(C)C)NC(=O)[C@H](CC(C)C)NC(=O)OCc1ccccc1 [MG132] (Cbz-Leu-Leu-Leu-aldehyde),ATF6 protein levels,ATF6,almost full recovery
same,AATF mRNA expression,AATF mRNA [1],up-regulated
O=C(/C=C/c1ccccc1)NC(NC(=S)Nc1cccc2cccnc12)C(Cl)(Cl)Cl (centres unmarked) [salubrinal],AATF expression,"AATF mRNA [2]; wild-type and Perk−/− mouse embryonic fibroblasts, Salubrinal 75 nM, 16 hr",increased
same,Chop expression,Chop mRNA,increased
same,eIF2α phosphorylation levels,eIF2α phosphorylation,increased
CN[C@@H]1C[C@H]2O[C@@](C)([C@@H]1OC)n1c3ccccc3c3c4c(c5c6ccccc6n2c5c31)C(=O)NC4 [staurosporin],AATF mRNA expression,AATF mRNA [1],not
same,increase of Akt1 mRNA expression,"Akt1 mRNA; INS-1 832/13, neuro2A and mouse embryonic fibroblasts, 16 hr, TM 5 μg/ml, MG132 2 μM, STR 0.05 and 0.01 μM",not
C/C=C(/C)C(=O)O[C@H]1C(C)=C2[C@H]([C@@H]1OC(=O)CCCCCCC)[C@@](C)(OC(C)=O)C[C@H](OC(=O)CCC)[C@@]1(O)[C@H]2OC(=O)[C@@]1(C)O [thapsigargin],attenuation of the induction of AATF,AATF mRNA [2],not
same,induction of AATF,AATF mRNA [2],attenuated
same,AATF mRNA expression,AATF mRNA [1],up-regulated
same,"AATF mRNA expression, time course","AATF mRNA [1]; INS-1 832/13 cells, Tg 0.5 μM, indicated times",continued to increase up to 24 hr
same,AATF protein expression in cytoplasmic and nuclear extracts,AATF,up-regulated
same,time of peak Akt1 mRNA expression during ER stress,Akt1 mRNA; INS1 832/13 cells,24 h
same,phosphorylation level of Akt,Akt; at 24 hr,decreased
same,phosphorylation level of Akt,Akt; up to 8 hr after treatment,increased
tunicamycin,attenuation of the induction of AATF,AATF mRNA [2],not
same,induction of AATF,AATF mRNA [2],attenuated
same,AATF mRNA expression,AATF mRNA [1],up-regulated
